Results published in ChEMBL document CHEMBL1201862, “PubChem BioAssay data set” (2004).
Structures can show the parent of a compound that is named as a salt. Active and inactive are the calls of the source.

Assays:
Ephrin type-A receptor 4 = Ephrin type-A receptor 4 (Mus musculus, UniProt Q03137); experiment: inhibitors of EphA4 binding to KYL peptide, primary screen, biochemical, colorimetric, mouse EphA4 (AID 689); format: functional
[1] = molecular target: T1, Heat shock factor protein 1 (Mus musculus, UniProt P38532); experiment: HSF1 potentiators in luciferase reporter cells, confirmation, cell-based, NIH3T3, luminescence, dose retest (AID 435004); format: functional;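 note: stress induced by proteasome inhibitor MG132 added 30 min after compound; luciferase reporter driven by HSF1 response element in NIH3T3 cells; actives raise luminescence as potentiators of the MG132 stress response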
T1 sequence (P38532 whole entry): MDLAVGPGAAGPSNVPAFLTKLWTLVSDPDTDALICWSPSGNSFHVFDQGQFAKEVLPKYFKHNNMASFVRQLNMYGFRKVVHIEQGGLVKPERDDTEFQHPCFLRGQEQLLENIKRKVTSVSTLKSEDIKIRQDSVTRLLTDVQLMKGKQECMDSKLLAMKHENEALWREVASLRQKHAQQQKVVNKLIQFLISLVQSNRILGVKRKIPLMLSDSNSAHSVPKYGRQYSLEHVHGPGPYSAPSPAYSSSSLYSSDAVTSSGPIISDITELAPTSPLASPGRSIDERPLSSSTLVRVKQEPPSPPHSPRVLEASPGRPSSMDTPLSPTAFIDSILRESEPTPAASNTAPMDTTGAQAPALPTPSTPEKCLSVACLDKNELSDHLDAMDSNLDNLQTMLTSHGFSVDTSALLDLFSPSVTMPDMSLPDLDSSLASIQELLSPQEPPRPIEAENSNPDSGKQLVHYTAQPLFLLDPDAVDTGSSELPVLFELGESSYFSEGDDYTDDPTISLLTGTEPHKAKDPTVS

Nonstructural protein 1 = Nonstructural protein 1 (Influenza A virus, UniProt Q194T2); format: functional, Influenza A virus (A/California/07/2009(H1N1))
[2] = molecular target: T2, Kappa-type opioid receptor (Homo sapiens, UniProt P41145); format: functional
[3] = Vero cell cytotoxicity, dose response, cytotoxicity control for Vif-APOBEC3G degradation inhibitor project, Vero cells (AID 1117358); format: functional; conditions: Human immunodeficiency virus 1, Vero
[4] = inhibitors of Vif binding to APOBEC3G peptide, primary screen, biochemical, TR-FRET, GST-Vif 1-94, biotin-A3G peptide, dose response retest (AID 1117319); format: functional;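 note: TR-FRET signal of purified GST-Vif binding a biotinylated A3G peptide; inhibitors lower the FRET signal by blocking Vif and A3G binding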
[5] = cytotoxicity in HEK-293T cells, dose response, cytotoxicity control for TCR NF-kB inhibitor project, luminescence, T-cell screen hits (AID 489026); format: functional, cell-based;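 note: cells exposed to compound about 14 hours before the viability readout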
[6] = molecular target: T2, Kappa-type opioid receptor; format: functional; remark: listed apart in the source
Vero = experiment: host cell cytotoxicity of antiviral hits, dose response, cytotoxicity control for West Nile virus antiviral project, secondary assay (AID 1650); format: functional; conditions: Chlorocebus sabaeus
HT-1080 = experiment: cytotoxicity in HT1080 fibrosarcoma cells, cell-based, fluorescence readout (AID 620); format: functional; conditions: Homo sapiens
[7] = molecular target: Luciferin 4-monooxygenase (Photinus pyralis, UniProt P08659); experiment: Counter Screen for Luciferase-based Assay Positives. [Related pubchem assays: 620, 618, 411 ]
CHO = experiment: cytotoxicity in TLR9-MyD88 CHO cells, dose response, cytotoxicity control for TLR9-MyD88 binding inhibitor project, cell-based, luminescence (AID 588339); format: functional, hamster; conditions: Cricetulus griseus;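 note: CHO cells stably coexpressing TLR9 and MyD88 fusions from primary screen; compound exposure lasted 48 hours before viability readout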
Beta-galactosidase = Beta-galactosidase (Escherichia coli, UniProt Q8VNN2); format: functional
[8] = molecular target: Heat shock protein HSP 90-alpha (Homo sapiens, UniProt P07900); format: functional, organism-based
Exodeoxyribonuclease V = Exodeoxyribonuclease V (Escherichia coli (strain K12), UniProt P04993+P07648+P08394); experiment: E. coli RecBCD inhibitors, dose response, counter-screen for AddAB inhibitor project, absorbance, V66 E. coli, mutant T4 phage (AID 492957); format: functional, cell-based, Escherichia coli str. K-12 substr. MG1655
[9] = molecular target: Voltage-gated inwardly rectifying potassium channel KCNH2 (Homo sapiens, UniProt Q12809); conditions: Potency;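 note: confirmatory quantitative high-throughput screen measuring inhibition of hERG channel activity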
[10] = Counterscreen for AddAB inhibitors: absorbance-based bacterial cell-based high throughput dose response assay for inhibitors of bacterial viability. [Related pubchem assays (depositor defined):AID435030, AID449728, AID449731, AID488942, AID488955, AID488956]; format: functional
[11] = molecular target: 5-hydroxytryptamine receptor 1A (Homo sapiens, UniProt P08908); format: functional

T2 sequence (P41145 whole entry): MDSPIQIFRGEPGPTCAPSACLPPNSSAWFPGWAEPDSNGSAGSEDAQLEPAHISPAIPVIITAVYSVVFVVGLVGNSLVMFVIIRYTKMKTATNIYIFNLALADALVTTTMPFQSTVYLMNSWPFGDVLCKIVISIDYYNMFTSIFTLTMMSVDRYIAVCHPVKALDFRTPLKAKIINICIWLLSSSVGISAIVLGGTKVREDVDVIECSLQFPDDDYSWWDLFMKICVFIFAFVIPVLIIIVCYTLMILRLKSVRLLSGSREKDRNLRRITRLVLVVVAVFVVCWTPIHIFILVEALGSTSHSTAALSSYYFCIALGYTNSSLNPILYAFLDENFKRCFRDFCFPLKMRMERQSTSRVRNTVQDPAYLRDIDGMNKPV
Sequence of Beta-galactosidase (Q8VNN2 whole entry): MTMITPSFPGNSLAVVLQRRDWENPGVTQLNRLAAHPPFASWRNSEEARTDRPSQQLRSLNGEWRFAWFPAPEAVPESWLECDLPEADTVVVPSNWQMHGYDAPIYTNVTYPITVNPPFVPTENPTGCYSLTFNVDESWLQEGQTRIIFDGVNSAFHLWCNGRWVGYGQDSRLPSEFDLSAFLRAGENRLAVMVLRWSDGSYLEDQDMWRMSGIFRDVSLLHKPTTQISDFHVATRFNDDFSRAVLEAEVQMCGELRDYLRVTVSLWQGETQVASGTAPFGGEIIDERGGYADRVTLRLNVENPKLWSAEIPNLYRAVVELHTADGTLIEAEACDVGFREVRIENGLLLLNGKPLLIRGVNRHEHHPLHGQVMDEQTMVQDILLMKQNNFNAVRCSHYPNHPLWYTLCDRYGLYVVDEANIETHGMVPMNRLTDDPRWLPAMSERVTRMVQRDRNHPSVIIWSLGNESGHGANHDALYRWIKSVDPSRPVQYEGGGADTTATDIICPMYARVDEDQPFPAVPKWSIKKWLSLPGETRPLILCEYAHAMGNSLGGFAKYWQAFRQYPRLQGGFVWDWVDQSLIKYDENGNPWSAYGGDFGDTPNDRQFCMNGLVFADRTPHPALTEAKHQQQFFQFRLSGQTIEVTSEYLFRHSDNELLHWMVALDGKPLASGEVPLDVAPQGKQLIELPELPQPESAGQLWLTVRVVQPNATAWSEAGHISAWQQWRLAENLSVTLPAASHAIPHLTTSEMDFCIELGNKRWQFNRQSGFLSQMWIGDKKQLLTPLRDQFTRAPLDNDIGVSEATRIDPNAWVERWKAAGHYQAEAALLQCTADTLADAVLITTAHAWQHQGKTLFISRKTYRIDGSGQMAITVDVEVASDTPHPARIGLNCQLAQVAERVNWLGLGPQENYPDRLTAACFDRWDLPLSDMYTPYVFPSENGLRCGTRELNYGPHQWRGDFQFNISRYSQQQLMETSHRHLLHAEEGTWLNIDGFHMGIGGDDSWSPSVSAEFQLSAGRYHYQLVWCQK
Sequence of Exodeoxyribonuclease V (P04993 whole entry): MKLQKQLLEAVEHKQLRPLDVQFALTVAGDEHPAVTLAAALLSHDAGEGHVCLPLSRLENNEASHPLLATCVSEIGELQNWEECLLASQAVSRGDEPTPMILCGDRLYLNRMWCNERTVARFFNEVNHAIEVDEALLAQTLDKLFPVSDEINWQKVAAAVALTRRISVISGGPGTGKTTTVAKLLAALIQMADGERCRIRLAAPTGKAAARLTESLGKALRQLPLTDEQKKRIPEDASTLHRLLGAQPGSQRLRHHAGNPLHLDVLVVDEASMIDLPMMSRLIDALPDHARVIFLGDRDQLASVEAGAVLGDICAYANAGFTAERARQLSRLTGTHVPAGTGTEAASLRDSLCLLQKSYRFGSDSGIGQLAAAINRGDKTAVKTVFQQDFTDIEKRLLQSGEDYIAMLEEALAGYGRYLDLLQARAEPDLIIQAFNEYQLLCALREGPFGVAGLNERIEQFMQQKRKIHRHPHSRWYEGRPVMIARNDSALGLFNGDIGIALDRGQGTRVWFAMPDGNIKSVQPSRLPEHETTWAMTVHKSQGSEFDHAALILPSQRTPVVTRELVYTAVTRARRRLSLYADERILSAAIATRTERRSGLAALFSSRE
Sequence of Exodeoxyribonuclease V (P07648 whole entry): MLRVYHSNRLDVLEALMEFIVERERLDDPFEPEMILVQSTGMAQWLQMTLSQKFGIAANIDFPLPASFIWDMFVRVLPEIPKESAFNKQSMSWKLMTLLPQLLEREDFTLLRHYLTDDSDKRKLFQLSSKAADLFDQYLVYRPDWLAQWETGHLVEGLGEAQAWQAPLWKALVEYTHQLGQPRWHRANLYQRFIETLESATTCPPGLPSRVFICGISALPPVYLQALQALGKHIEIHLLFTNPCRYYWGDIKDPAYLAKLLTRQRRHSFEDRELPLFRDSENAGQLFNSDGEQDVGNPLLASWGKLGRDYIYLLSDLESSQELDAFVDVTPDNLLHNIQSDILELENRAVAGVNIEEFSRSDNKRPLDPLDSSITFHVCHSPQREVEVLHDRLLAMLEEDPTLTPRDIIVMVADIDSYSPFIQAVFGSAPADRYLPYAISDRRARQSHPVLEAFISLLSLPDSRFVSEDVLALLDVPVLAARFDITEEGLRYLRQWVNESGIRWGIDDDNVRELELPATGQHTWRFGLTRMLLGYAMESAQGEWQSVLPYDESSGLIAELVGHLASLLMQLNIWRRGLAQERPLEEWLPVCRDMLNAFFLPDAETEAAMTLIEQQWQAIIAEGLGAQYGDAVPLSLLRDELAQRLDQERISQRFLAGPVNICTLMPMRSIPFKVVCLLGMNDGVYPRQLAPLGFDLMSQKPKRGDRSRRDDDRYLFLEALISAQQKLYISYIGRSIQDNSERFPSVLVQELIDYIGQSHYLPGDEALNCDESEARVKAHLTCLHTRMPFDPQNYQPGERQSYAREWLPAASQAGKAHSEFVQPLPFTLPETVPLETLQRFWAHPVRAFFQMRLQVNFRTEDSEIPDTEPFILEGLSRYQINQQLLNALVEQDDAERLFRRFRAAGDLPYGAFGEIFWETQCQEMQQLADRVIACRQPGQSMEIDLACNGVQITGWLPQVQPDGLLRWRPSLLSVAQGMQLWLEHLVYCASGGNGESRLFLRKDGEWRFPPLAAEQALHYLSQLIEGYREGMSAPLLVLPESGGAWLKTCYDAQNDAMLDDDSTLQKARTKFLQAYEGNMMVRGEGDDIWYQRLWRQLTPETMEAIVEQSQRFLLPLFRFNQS
Sequence of Exodeoxyribonuclease V (P08394 whole entry): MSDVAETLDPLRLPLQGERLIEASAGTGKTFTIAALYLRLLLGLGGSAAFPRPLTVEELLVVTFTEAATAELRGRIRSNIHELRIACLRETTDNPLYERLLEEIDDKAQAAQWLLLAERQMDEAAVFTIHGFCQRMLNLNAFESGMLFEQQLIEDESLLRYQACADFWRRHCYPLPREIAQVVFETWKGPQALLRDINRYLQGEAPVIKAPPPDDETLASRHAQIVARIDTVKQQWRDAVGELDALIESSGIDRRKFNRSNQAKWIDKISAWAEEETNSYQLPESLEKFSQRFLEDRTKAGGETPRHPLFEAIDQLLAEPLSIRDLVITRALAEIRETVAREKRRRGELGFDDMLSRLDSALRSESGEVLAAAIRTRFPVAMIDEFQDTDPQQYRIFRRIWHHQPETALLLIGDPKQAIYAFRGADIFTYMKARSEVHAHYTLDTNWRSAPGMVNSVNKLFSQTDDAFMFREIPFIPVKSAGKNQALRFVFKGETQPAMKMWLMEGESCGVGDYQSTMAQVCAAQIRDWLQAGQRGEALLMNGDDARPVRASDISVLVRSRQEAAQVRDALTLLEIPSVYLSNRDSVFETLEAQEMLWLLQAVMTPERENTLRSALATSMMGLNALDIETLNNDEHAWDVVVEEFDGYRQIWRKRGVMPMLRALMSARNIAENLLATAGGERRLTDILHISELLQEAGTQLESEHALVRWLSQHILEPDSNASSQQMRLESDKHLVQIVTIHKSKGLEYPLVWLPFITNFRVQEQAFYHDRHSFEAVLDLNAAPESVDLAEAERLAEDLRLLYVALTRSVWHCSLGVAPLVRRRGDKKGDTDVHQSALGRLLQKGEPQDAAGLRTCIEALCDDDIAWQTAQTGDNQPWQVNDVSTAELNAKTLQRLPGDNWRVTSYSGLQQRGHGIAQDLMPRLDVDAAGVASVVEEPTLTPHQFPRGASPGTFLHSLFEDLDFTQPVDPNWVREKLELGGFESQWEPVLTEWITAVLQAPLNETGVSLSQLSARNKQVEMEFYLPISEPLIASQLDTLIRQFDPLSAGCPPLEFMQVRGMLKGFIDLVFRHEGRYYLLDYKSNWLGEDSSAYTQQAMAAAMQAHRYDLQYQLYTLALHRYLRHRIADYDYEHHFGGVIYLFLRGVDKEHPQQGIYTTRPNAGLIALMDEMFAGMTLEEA
Sequence of Luciferin 4-monooxygenase (P08659 whole entry, the tested form may be a part): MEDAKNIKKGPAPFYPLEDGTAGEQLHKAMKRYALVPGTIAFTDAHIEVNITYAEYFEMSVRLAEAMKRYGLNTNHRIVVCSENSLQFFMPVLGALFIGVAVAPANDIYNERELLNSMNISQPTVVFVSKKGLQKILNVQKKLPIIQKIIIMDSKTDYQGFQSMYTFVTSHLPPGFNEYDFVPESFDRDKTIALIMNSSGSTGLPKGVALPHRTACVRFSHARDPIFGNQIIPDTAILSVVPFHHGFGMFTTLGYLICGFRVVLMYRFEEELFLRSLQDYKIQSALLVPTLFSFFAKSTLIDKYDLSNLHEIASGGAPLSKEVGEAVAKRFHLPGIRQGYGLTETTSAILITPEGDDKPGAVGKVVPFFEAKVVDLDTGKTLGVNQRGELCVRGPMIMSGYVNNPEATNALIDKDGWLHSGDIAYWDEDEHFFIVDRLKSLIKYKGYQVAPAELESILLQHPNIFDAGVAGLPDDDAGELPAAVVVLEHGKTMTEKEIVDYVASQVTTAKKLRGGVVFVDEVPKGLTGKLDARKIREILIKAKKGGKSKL

In the case of `Cc1cc(C)c2nc(N3CCCN(C(=O)c4ccco4)CC3)c(C#N)cc2c1`, the IC50 (Ephrin type-A receptor 4) is reported as 16.6 µM (active).

With `O=S1(=O)Nc2c(ccc3cccnc23)-c2ccccc21` the EC50 [1] was 2.76 µM (active), the IC50 (Nonstructural protein 1) was 3.63 µM (active) and the IC50 [2] was > 32 µM. For the same compound, the CC50 [3] was 13.8 µM (active), the IC50 [4] was > 100 µM (active) and the IC50 [5] was > 80 µM (inactive). For the same compound, the IC50 [6] was 1.3 µM (active), the CC50 (Vero) was 4.21 µM (active) and the EC50 (HT-1080) was > 50 µM (not active). For the same compound, the EC50 [7] was 2.82 µM (active), the IC50 (CHO) was 1.77 µM (active) and the EC50 (Beta-galactosidase) was > 31.5 µM (inactive). For the same compound, the AC50 [8] was < 0.195 µM (active).

In the case of `Cc1cc(C(C)(C)C)cc(C)c1CC1=NCCN1` [XYLOMETAZOLINE HYDROCHLORIDE], the IC50 (Exodeoxyribonuclease V) is reported as > 119 µM (inactive), the AC50 [9] is reported as 14.1 µM (inconclusive) and the IC50 [10] is reported as 29.7 µM (inactive). For the same compound, the EC50 [11] was 0.129 µM (active).
